Data on one compound can be found in patent US20120214784A1, “SPIROPIPERIDINE COMPOUNDS AS ORL-1 RECEPTOR ANTAGONISTS” (ELI LILLY AND COMPANY, priority 2009, published 2012).

Experiment [1] concerns the target T1, cloned human ORL1 receptors (Homo sapiens, UniProt P41146).
T1 construct: expressed in transfected cells; host or cells: CHO cells (membranes)
As to the kind of experiment: [3H]-OFQ/nociceptin receptor binding assay. On the procedure: (§1) Radioligand binding assays are commonly used to determine the affinity (Ki) or potency of a compound to bind to a particular receptor or target protein. A filtration-based [3H]-OFQ/nociceptin receptor binding assay is developed based on previous assay formats (Ardati A, Henningsen R A, Higelin J, Reinscheid R K, Civelli O, Monsma F J Jr. Mol. Pharmacol. 1997 May; 51(5):816-24.) with minor modifications. [3H]-OFQ/nociceptin binding assays are carried out in deep-well 96-well plates. [^3H]OFQ (final assay concentration 0.2 nM) competition studies are carried out with 5-10 μg of membrane protein (isolated from Chinese hamster ovary cells (CHO cells) expressing cloned human ORL1 receptors) in a final assay volume of 0.5 mL of buffer containing 20 mM HEPES, pH 7.4, 5 mM MgCl2, 1 mM EGTA, 100 mM NaCl, 0.1% bovine serum albumin. Samples are incubated for 60 min. at room temperature, which is found to be optimal for competition assays. The assays are terminated by filtration through glass fiber filters (Wallac filtermat A) [pretreated with 0.3% polyethylenimine (Sigma) for 1 hr] on a Tometc cell harvester, and the filters are washed three times with 5 mL of ice-cold 50 mM Tris.HCl, pH 7.4. Filtermats are then dried and imbedded with Meltilex scintillant A and the radioactivity counted in a Wallac Microbeta scintillation counter. Specific binding is determined by displacement with 100 nM unlabeled nociceptin. Curves are plotted as the percent of specific binding and IC50 values are determined using a sigmoidal dose response curve with variable slope. K, values are calculated from the IC50 by the equation of Cheng and Prusoff (Cheng, Y. C., and Prusoff, W. H., Biochem. Pharmacol. 22, 3099-3108 (1973)) where Ki=IC50×(1+D×Kd^−1)^−1. Similarly, Ki for the mu, kappa and delta opioids, serotonin, adrenergic, and muscarinic receptors may be determined using membranes expressing the desired receptor and appropriate corresponding radioligand competitor molecules.

Experiment [2] addresses T2, cloned human ORL1/nociceptin receptors (Homo sapiens, UniProt P41146).
T2 construct: expressed in transfected cells
As to the kind of experiment: Functional blockade of agonist-mediated G-protein activation, GTP-γ-[35S] binding. In kind it is biochemical. An excerpt:
Agonist-mediated stimulation of G-protein coupled receptors results in the activation of membrane associated Gαβγ-protein heterotrimer complexes, and represents the first step in the transduction of extracellular signals to modification of intracellular pathways. The first step in activation of receptor-mediated activation of Gαβγ-proteins heterotrimer is the exchange of Gα subunit bound guanosine diphoshpate (GDP) for guanosine triphosphate (GTP). The binding of GTP to the Gα subunit causes dissociation of the heterotrimer subunits, Gβ and Gγ, resulting in the modulation of several intracellular signaling cascades. Measurement of receptor-mediated G-protein activation can be measured using the non-hydrolyzable radiolabeled analog of GTP, GTP-γ-[35S]. Utilizing this methodology, antagonist affinity (Kb) is measured in membranes expressing cloned human ORL1/nociceptin receptors using a GTP-γ-[35S] binding assay according to previously described protocols with minor modifications (DeLapp et al., J Pharmacol Exp Ther. 1999 May; 289(2):946-55; Ozaki et al., Eur J Pharmacol. 2000 Aug. 18; 402(1-2):45-53). Assays are conducted in a 200-μl volume with the following buffer composition: 100 mM NaCl, 20 mM HEPES, 5 mM MgCl2, 1 mM EDTA, 0.1% BSA, 3 μM GDP, 0.5 nM [^35S]GTPγS. ORL1 receptor membrane suspension is added at a concentration of 20 μg protein per well and receptor stimulation is achieved using 300 nM nociceptin/OFQ. Wheat germ agglutinin coated SPA beads (Amersham, Arlington Hts., Ill.) are added at 1 mg per well to detect membrane-bound [^35S]GTPγS. Plates are sealed and incubated for 2 hr. at room temperature. Plates are then placed at 4° C. overnight to allow the SPA beads to settle and then counted in a Wallac Microbeta. Specific [^35S]GTPγS binding is determined as the difference in CPM observed in the absence and presence of 10 μM unlabeled GTPγS. Data are plotted as the percent of specific [^35S]GTPγS bound. Curves are plotted as the percent of specific binding and IC50 values are determined using a sigmoidal dose response curve with variable slope. Antagonist affinity (Kb) is estimated according to DeLapp et al., 1999 using a modification of the equation of Cheng and Prusoff (1973) where Kb=IC50×(1+D×EC50^−1)^−1.
A general note: GTPγS resists hydrolysis and so accumulates on activated G proteins.

Experiment [3] deals with human ERG (hERG) K+ channel (Homo sapiens, UniProt Q12809). As to the kind of experiment: hERG channel [3H]astemizole binding assay. On the procedure: Blockade of K^+-channel conductance in the heart is associated with cardiotoxicity in the form of QT-wave prolongation. The affinity (Ki) of the exemplified nociceptin receptor antagonists for the human ERG (hERG) K^+ channel is determined in HEK293 cells expressing cloned hERG using the hERG channel antagonist radioligand [3H]astemizole (2 nM final assay concentration) according to well known procedures (see for example Finlayson K, et al. (Eur J Pharmacol. 412(3):203-12, 2001) [3H]Astemizole binding assays are performed at the contract research company Cerep (Paris France) according to standard procedures.
human ERG (hERG) K+ channel, sequence (Q12809 whole entry): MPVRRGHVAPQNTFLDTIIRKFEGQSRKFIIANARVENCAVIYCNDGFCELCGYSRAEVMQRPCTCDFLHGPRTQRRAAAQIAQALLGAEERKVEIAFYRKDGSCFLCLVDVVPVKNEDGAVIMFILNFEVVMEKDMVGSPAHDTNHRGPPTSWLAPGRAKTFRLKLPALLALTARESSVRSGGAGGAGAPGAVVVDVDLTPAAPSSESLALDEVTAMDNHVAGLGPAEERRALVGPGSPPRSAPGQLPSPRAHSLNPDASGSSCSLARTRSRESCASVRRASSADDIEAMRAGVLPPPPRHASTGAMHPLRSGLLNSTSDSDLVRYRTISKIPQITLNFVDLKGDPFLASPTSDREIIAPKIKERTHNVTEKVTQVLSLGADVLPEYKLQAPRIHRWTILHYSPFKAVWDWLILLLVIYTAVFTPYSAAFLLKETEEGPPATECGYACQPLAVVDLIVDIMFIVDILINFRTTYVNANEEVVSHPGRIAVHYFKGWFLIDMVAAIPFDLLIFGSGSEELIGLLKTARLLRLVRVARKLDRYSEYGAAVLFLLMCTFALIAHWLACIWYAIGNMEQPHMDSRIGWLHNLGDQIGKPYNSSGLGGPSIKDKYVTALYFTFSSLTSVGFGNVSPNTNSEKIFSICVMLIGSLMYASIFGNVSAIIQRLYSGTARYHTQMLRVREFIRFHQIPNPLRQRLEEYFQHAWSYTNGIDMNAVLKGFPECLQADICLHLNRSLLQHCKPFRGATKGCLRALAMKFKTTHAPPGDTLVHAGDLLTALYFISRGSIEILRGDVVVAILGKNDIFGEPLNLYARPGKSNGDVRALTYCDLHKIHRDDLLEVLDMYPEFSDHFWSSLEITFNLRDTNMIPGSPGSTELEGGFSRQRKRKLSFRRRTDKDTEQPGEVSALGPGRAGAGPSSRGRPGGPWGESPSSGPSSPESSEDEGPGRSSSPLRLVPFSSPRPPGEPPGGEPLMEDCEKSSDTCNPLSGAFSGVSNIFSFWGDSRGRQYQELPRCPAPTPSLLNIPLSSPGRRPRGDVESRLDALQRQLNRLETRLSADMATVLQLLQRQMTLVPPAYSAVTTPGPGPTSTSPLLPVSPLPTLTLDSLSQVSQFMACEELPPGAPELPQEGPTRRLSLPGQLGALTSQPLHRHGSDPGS
On the technique in general: hERG is a cardiac potassium channel; its block is linked to QT prolongation.

Experiment [4] addresses T3, nociceptin/ORL1 receptors (Rattus norvegicus, UniProt P35370).
T3 construct: rats are sacrificed by cervical dislocation and the hypothalamus is removed; from tissue; host or cells: rat hypothalamus (in vivo occupancy)
As to the kind of experiment: In vivo receptor occupancy (LC/MS/MS, RO Tracer) in hypothalamus. The conditions noted are these: oral 3 mg/kg dose after 6 hr.

The test system of experiment [5] is wild type and ORL knockout mice. As to the kind of experiment: Blockade of fasting-induced hyperphagia in mice. Format: in vivo, mouse. The conditions noted are these: wild type mice, oral gavage 30 min. prior to food, food intake 1 hr. The text has this: Blockade of fasting-induced hyperphagia in rats is an accepted model for hyperphagic eating disorders. […] Mice are individually housed a minimum of 3 days prior to the onset of testing to eliminate any effects of stress due to the change from group to individual housing. Three mice/genotype are randomly assigned to each treatment group on the test day. Pre-fast body weight measurements are taken, and food is then removed from cages overnight. Mice are fasted for approximately 15 hr. The next morning, the mice are given one of three doses of drug or vehicle via oral gavage 30 min. prior to gaining access to food. Drugs are dissolved in 20% Captisol dissolved in 25 mM phosphate buffer, pH 2.0. Measurements of body weight are taken immediately prior to drug treatment or 24 hr. after access to food is restored. […] Measurements of food intake are recorded 1 hr following access to food, as indicated, by weight of food remaining at 1 hr. It should be noted that food intake measured is during the light phase, a time during which mice are typically at rest and not normally eating. Following initial testing, mice are rested for 1 week with access to unlimited chow.

Another experiment deals with 5-HT1E (Homo sapiens, UniProt P28566). As to the kind of experiment: Radioligand binding selectivity. The following applies: 5-HT1E; read-out: Ki. On the procedure: as §1
In the next experiment the target is 5-HT7 (Homo sapiens, UniProt P34969). As to the kind of experiment: Radioligand binding selectivity. The following applies: 5-HT7; read-out: Ki. On the procedure: as §1
5-HT7, sequence (P34969 whole entry, species assumed): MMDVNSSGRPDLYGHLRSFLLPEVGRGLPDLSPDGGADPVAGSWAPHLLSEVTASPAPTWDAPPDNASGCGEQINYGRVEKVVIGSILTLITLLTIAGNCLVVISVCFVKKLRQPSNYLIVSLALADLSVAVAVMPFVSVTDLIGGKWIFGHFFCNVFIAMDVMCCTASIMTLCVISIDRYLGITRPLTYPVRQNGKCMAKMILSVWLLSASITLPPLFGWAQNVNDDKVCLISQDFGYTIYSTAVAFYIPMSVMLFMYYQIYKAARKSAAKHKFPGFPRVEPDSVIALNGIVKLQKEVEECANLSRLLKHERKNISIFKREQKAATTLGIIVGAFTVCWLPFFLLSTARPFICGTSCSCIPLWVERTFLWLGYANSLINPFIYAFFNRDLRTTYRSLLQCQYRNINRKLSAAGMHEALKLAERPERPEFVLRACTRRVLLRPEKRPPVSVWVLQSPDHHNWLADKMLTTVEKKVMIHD
The target of the next experiment is 5-HT1D (Homo sapiens, UniProt P28221). As to the kind of experiment: Radioligand binding selectivity. The following applies: 5-HT1D; read-out: Ki. On the procedure: as §1
5-HT1D, sequence (P28221 whole entry, species assumed): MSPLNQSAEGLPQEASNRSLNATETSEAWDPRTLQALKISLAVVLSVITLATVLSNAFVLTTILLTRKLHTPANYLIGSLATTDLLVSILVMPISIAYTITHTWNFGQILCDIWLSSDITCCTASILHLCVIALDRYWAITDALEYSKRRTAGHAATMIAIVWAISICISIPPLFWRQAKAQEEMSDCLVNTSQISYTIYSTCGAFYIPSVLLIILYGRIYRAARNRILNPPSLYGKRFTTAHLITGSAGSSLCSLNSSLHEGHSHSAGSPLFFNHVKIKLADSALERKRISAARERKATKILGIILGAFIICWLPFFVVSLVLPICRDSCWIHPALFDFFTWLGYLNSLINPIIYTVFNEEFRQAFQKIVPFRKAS
A further experiment concerns the target 5-HT4 (Homo sapiens, UniProt Q13639). As to the kind of experiment: Radioligand binding selectivity. The following applies: 5-HT4; read-out: Ki. On the procedure:
as §1

Another experiment has as its target 5-HT5 (Homo sapiens, UniProt P47898). As to the kind of experiment: Radioligand binding selectivity. The conditions noted are these: 5-HT5; read-out: Ki. On the procedure: as §1
For the next experiment, the target named is 5-HT2B (Homo sapiens, UniProt P41595). As to the kind of experiment: Radioligand binding selectivity. On the procedure: as §1
Another experiment concerns the target 5-HT6 (Homo sapiens, UniProt P50406). As to the kind of experiment: Radioligand binding selectivity. The following applies: 5-HT6; read-out: Ki. On the procedure:
as §1

A further experiment addresses 5-HT1F (Homo sapiens, UniProt P30939). As to the kind of experiment: Radioligand binding selectivity. On the procedure: as §1
Another experiment has as its target 5-HT2A (Homo sapiens, UniProt P28223). As to the kind of experiment: Radioligand binding selectivity. The following applies: 5-HT2A; read-out: Ki. On the procedure:
as §1

In a further experiment the target is 5-HT2C (Homo sapiens, UniProt P28335). As to the kind of experiment: Radioligand binding selectivity. The following applies: 5-HT2C; read-out: Ki. On the procedure: as §1
The next experiment has as its target 5-HT1B (Homo sapiens, UniProt P28222). As to the kind of experiment: Radioligand binding selectivity. The conditions noted are these: 5-HT1B; read-out: Ki. On the procedure:
as §1

Where only a bound is given, the exact number is not on record here.

T1 sequence (P41146 whole entry): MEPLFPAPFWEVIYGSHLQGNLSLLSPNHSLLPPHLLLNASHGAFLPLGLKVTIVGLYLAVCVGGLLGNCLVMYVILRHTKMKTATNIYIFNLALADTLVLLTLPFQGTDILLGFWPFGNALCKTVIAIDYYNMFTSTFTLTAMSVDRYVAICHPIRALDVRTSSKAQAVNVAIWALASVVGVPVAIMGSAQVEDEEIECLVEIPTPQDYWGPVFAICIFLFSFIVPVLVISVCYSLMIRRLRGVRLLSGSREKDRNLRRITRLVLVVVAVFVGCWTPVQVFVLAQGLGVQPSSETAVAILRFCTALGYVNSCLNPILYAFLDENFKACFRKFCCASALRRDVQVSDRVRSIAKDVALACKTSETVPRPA
T2 sequence (P41146 whole entry): as above
5-HT1F, sequence (P30939 whole entry, species assumed): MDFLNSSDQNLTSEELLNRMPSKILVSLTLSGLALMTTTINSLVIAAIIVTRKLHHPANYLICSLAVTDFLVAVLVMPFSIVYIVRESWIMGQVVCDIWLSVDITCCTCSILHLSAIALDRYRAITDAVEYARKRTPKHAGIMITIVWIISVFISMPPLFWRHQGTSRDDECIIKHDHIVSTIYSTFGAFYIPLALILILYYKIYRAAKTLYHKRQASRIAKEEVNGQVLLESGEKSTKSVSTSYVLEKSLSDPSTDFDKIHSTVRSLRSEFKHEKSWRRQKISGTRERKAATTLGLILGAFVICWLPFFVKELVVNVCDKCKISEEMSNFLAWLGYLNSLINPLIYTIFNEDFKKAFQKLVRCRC
5-HT4, sequence (Q13639 whole entry, species assumed): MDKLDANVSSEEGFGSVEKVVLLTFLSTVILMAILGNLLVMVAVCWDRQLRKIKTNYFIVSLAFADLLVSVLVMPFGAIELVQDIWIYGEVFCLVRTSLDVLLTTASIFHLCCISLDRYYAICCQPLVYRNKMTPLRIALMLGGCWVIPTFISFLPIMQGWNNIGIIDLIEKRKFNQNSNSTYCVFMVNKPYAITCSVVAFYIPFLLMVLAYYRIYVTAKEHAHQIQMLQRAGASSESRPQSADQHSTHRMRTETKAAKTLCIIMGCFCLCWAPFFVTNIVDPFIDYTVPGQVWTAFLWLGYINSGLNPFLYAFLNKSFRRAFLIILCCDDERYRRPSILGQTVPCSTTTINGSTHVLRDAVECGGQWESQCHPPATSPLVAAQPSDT
5-HT5, sequence (P47898 whole entry, species assumed): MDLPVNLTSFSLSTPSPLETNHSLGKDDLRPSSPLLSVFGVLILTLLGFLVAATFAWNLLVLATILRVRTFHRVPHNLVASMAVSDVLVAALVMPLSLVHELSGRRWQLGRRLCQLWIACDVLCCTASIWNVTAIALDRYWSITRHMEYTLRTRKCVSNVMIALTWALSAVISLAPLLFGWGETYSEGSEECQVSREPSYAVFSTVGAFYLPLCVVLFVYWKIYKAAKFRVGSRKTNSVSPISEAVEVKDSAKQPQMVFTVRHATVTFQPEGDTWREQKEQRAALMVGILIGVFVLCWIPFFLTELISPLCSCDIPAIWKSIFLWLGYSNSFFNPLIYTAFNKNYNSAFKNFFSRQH
5-HT1B, sequence (P28222 whole entry, species assumed): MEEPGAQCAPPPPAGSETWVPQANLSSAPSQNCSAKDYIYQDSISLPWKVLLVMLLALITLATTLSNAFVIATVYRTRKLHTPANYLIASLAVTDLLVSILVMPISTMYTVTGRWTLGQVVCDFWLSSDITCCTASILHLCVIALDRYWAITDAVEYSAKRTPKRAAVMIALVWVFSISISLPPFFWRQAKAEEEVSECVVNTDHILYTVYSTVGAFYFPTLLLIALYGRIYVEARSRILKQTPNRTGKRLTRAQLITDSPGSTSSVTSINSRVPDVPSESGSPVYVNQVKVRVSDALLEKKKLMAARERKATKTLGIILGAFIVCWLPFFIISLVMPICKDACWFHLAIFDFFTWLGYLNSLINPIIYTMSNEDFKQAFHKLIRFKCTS
T3 sequence (P35370 whole entry): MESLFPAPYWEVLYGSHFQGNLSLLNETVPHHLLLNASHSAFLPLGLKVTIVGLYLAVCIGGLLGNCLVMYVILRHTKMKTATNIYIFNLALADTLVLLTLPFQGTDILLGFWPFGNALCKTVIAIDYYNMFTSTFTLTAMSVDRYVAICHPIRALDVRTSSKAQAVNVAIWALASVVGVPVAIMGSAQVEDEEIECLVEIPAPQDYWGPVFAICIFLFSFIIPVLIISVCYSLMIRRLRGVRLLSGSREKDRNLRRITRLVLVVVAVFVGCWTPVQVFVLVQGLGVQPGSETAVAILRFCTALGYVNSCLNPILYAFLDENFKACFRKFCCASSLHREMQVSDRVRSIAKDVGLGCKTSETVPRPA
5-HT2A, sequence (P28223 whole entry, species assumed): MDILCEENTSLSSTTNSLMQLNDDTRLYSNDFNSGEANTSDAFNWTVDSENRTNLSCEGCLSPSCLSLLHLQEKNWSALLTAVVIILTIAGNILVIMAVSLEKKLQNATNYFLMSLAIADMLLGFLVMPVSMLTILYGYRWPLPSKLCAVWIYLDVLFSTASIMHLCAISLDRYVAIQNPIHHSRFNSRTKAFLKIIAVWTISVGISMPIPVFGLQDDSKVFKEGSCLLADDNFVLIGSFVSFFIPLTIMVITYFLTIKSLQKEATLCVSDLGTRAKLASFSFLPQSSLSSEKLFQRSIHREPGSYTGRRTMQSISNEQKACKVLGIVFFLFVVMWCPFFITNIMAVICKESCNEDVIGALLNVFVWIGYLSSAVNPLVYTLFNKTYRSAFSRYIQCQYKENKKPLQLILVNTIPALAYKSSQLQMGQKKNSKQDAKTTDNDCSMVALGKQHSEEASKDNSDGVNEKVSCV

The term Ki denotes the dissociation constant of the complex between target and ligand, obtained from inhibition or displacement. As for `OCc1nn(-c2c(F)cccc2F)cc1CN1CCC2(CC1)OCC(F)(F)c1cc(Cl)sc12` [Example 50, [4-[(2-Chloro-4,4-difluoro-spiro[5H-thieno[2,3-c]pyran-7,4′-piperidine]-1′-yl)methyl]-1-(2,6-difluorophenyl)pyrazol-3-yl]methanol], the inhibitory constant (Ki) is 0.00089 µM in [1]; 7 µM in [3]; above 5.37 µM on 5-HT1E; above 3.98 µM on 5-HT7; above 8.55 µM on 5-HT1D; above 4.12 µM at 5-HT4. Moreover, the Ki is above 9.09 µM at 5-HT5; 0.0429 µM on 5-HT2B; above 5.83 µM at 5-HT6; above 8.52 µM at 5-HT1F; above 5 µM at 5-HT2A; 4.75 µM at 5-HT2C. The Ki at 5-HT1B was above 3.58 µM. In experiment [2], this compound registered a Kb of 0.00054 µM. In experiment [4], this compound yielded a receptor occupancy at 3 mg/kg of 81%. In addition, the fasting-induced hyperphagia result in experiment [5] is “substantially block fasting-induced hyperphagia”.
